# Entries after “also recorded” stand apart in the source; their conditions may differ.
# Legend:
# [1] = tested on: HIV-luc/Zaire EBOV-GP2014 pseudotype virus; type: cell-based, Ebola virus
# [2] = tested on: envelope protein GP of Ebola virus (HIV-luc/EBOV-GP pseudotype virus); type: cell-based
# [3] = tested on: HIV-luc/Zaire EBOV-GP2014 pseudotype virus; type: cell-based, Ebola virus; remark: listed apart in the source
# [4] = tested on: HIV-luc/Zaire EBOV-GP2014 pseudotype virus; type: cell-based, Ebola virus; remark: listed apart in the source
# [5] = tested on: HIV-luc/Zaire EBOV-GP2014 pseudotype virus; type: cell-based, Ebola virus; remark: listed apart in the source
# [6] = tested on: envelope G protein of vesicular stomatitis virus, VSV-G (HIV-luc/VSV-G pseudotype virus); type: cell-based
substance,measurement,setting,value
teicoplanin,cytotoxicity in 293T cells,293T cells,non-cytotoxic
same,"toxicity (FIG. 3, CC50 test)",293T cells,low
same,inhibitory effect on virus in Hela cells,[1],good inhibitory effect
same,"inhibitory effect on the envelope protein of Ebola virus, EBOV-GP (entry)",[2],can inhibit the entry of Ebola virus; also recorded: good inhibitory effect
same,IC50,[2]; read-out: IC50 of teicoplanin (inhibition of Ebola pseudovirus infecting 293T cells),200 nM
same,inhibitory effect on virus in A549 cells,[3],good inhibitory effect
same,inhibitory effect on virus in HUVECs,[4],good inhibitory effect
same,inhibitory effect on virus in THP-1 cells,[5],good inhibitory effect
same,"inhibitory effect on the envelope G protein of vesicular stomatitis virus, VSV-G",[6],no inhibitory effect

# Reference: US20180353568A1 (priority 2015, published 2018)
